Assay results: patent publication US10556872B2, “Fatty acid synthase inhibitors and methods of use” (Hampton University, priority 2017, dated 2020)

Legend:
Format in all cases: cell-based
[1] = tested on: MCF-7 breast cancer cells; test: MTT assay, cell viability of MCF-7 breast cancer cells; details: Homo sapiens, MCF7; MCF-7 cells, 24 hours of treatment
Protocol: An MTT assay was performed with the FAS inhibiting compounds of Formulae II, III, IV and V (e.g., Compound 1A) on MCF-7 breast cancer cells, with an IC50 of about […] after 24 hours of treatment. The results are illustrated in FIG. 2.
(§1) Antiproliferative effect of FAS inhibitors on MCF-7 cells was determined by performing MTT assay. Roughly, 10,000 cells per well were plated in 96-well cell culture microplate (Costar, USA) and incubated overnight in full media (DMEM containing 10% FBS) for cells to adhere to the plate. Cells were then treated with various concentrations of inhibitors and vehicle for 24 hrs in serum free media. Cell viability was evaluated by the MTT (Sigma-Aldrich, St. Louis, Mont.) assay. The absorbance of solubilized formazan was read at 570 nm using ELISA reader (Bio-TEK, Synergy-1).

H460 lung cancer cells = test: MTT assay, cell viability of H460 lung cancer cells
Protocol: as §1
(§2) We treated H460 lung cancer cells, MDA-MB-231 breast cancer cells, and PC-3 prostate cancer cells with the FAS inhibitor, Compound 1A.

[2] = tested on: MDA-MB-231 breast cancer cells; test: MTT assay, cell viability of MDA-MB-231 breast cancer cells; details: MDA-MB-231 cells
Protocol: as §1, §2

[3] = tested on: PC-3 prostate cancer cells; test: MTT assay, cell viability of PC-3 prostate cancer cells; details: PC-3 cells
Protocol: as §1, with “Cells were then treated with various concentrations of inhibitors and vehicle for 24 hrs in serum free media.” left out
as §2

| Structure (SMILES) | IC50 [1] [µM] | cell viability (MTT) (H460 lung cancer cells; 24-hr treatment (FIG. 4: 10 μM)) | cell viability (MTT) ([2]; 24-hr treatment (FIG. 5: 10 μM)) | cell viability (MTT) ([3]; 72-hr treatment (FIG. 6B: 10 μM)) | anticancer effect (MTT assay), fragment alone (H460 lung cancer cells) | anticancer effect (MTT assay), fragment alone [2] | anticancer effect (MTT assay), fragment alone [3] |
| --- | --- | --- | --- | --- | --- | --- | --- |
| CCCCCCCCCCCCCCCCOC(=O)CCn1cc(Br)c(=O)[nH]c1=O [Compound 1A, Hexadecyl 3-(5-bromo-2,4-dioxo-3,4-dihydropyrimidin-1(2H)-yl)propanoate] | ~10 | significantly reduced the viability | significantly reduced the viability | reduced the viability | – | – | – |
| O=c1[nH]cc(Br)c(=O)[nH]1 [5-Bromouracil] | – | – | – | – | no anticancer effect | no anticancer effect | no anticancer effect |
| O=C(CCn1cc(Br)c(=O)[nH]c1=O)OCCO [5-Bromouracil ester, 2-Hydroxyethyl3-(5-bromo-2,4-dioxo-3,4-dihydropirimidin-1(2H)-yl)propanoate] | – | – | – | – | no anticancer effect | no anticancer effect | no anticancer effect |
